From US20230212163A1, “2-(HET)ARYL-SUBSTITUTED CONDENSED HETEROCYCLIC DERIVATIVES AS PEST CONTROL AGENTS” (Bayer Aktiengesellschaft, priority 2020, published 2023) come the findings set out here.

Holding throughout (assay type): in vivo
One test deals with Heliothis armigera. Kind of test: Heliothis armigera spray test (HELIAR), comparative. Particulars: Helicoverpa armigera, 168 h, 7 dat, read-out: % efficacy. How it is done: (§1) [table] To produce a suitable active compound formulation, 1 part by weight of active compound is dissolved using the stated parts by weight of solvent and made up with water containing an emulsifier concentration of 1000 ppm until the desired concentration is attained. To produce further test concentrations, the formulation is diluted with emulsifier-containing water. If the addition of ammonium salts or/and penetrants is required, these are each added in a concentration of 1000 ppm to the formulation solution. Cotton plants (Gossypium hirsutum) are sprayed with an active compound formulation of the desired concentration and, after drying, populated with caterpillars of the cotton bollworm (Heliothis armigera). After the desired time, the kill in % is determined. 100% means that all caterpillars have been killed; 0% means that none of the caterpillars have been killed.

Another test concerns Plutella xylostella. Kind of test: Plutella xylostella spray test (PLUTMA), comparative. Particulars: 168 h, 7 dat, read-out: % efficacy. Here is the method:
as §1, with “solution. Cabbage leaves (Brassica oleracea)” for “solution. Cotton plants (Gossypium hirsutum)”, “concentration and infected” for “concentration and, after drying, populated”, “with larvae” for “with caterpillars”, “the diamondback moth (Plutella xylostella).” for “the cotton bollworm (Heliothis armigera).”

Test [1] deals with Spodoptera frugiperda. In words: Spodoptera frugiperda spray test (SPODFR, cotton leaves), comparative. Particulars: 168 h, 7 dat, read-out: % efficacy. Here is the method:
as §1, with “leaves” for “plants”, “and” for “and, after drying,”, “armyworm (Spodoptera frugiperda).” for “cotton bollworm (Heliothis armigera).”

Test [2] has as its system Spodoptera frugiperda. In words: Spodoptera frugiperda spray test (maize leaf discs). Particulars: Spodoptera frugiperda, foliar, 168 h, application rate 100 g/ha, after 7 days. Here is the method: (§2) [table] To produce a suitable active compound formulation, 1 part by weight of active compound is dissolved using the stated parts by weight of solvent and made up with water containing an emulsifier concentration of 1000 ppm until the desired concentration is attained. To produce further test concentrations, the formulation is diluted with emulsifier-containing water. Leaf discs of maize (Zea mays) are sprayed with an active compound formulation of the desired concentration and, after drying, populated with caterpillars of the fall armyworm (Spodoptera frugiperda). After 7 days, the efficacy in % is determined. 100% means that all the caterpillars have been killed; 0% means that no caterpillar has been killed.

In test [3] the test system is Myzus persicae. In words: Myzus persicae spray test. Particulars: application rate 100 g/ha, after 5 days. How it is done: as §2, with “Discs” for “Leaf discs”, “Chinese cabbage leaves (Brassica pekinensis) infested by all stages of the green peach aphid (Myzus persicae)” for “maize (Zea mays)”, “concentration.” for “concentration and, after drying, populated with caterpillars of the fall armyworm (Spodoptera frugiperda).”, “5” for “7”, “aphids” for “caterpillars”, “aphids have” for “caterpillar has”

The next test deals with Phaedon cochleariae. Kind of test: Phaedon cochleariae spray test. Particulars: application rate 100 g/ha, after 7 days. Here is the method: as §2, with “water. Discs” for “water. Leaf discs”, “of Chinese cabbage leaves (Brassica pekinensis)” for “of maize (Zea mays)”, “with larvae” for “with caterpillars”, “the mustard beetle (Phaedon cochleariae).” for “the fall armyworm (Spodoptera frugiperda).”, “the beetle larvae” for “the caterpillars”, “no beetle larvae have” for “no caterpillar has”

For test [4], the system named is Myzus persicae. In words: Myzus persicae oral test. Particulars: 120 h, application rate 4 ppm, after 5 days, read-out: efficacy. Here is the method:
[table] To produce a suitable active compound formulation, 1 part by weight of active compound is dissolved using the specified parts by weight of solvent and made up with water until the desired concentration is attained. 50 μl of the active compound formulation are transferred into microtitre plates and made up to a final volume of 200 μl with 150 μl of IPL41 insect medium (33%+15% sugar). Subsequently, the plates are sealed with parafilm, which a mixed population of green peach aphids (Myzus persicae) within a second microtitre plate is able to puncture and imbibe the solution through. After 5 days, the efficacy in % is determined. 100% means that all the aphids have been killed; 0% means that no aphids have been killed.

For another test, the system named is Meloidogyne incognita. Kind of test: Meloidogyne incognita test. Particulars: application rate 20 ppm, after 14 days. How it is done: [table] To produce an appropriate active ingredient formulation, 1 part by weight of active ingredient is mixed with the stated amount of solvent and the concentrate is diluted to the desired concentration with water. Vessels are filled with sand, active ingredient solution, an egg/larvae suspension of the southern root-knot nematode (Meloidogyne incognita) and lettuce seeds. The lettuce seeds germinate and the plants develop. The galls develop on the roots. After 14 days, the nematicidal efficacy in % is determined by the formation of galls. 100% means that no galls were found; 0% means that the number of galls on the treated plants corresponds to the untreated control.

The next test relates to Diabrotica balteata. In words: Diabrotica balteata spray test. Particulars: Diabrotica balteata, 168 h, application rate 100 g/ha, after 7 days. How it is done:
[table] To produce a suitable active compound formulation, 1 part by weight of active compound is dissolved using the stated parts by weight of solvent and made up with water containing an emulsifier concentration of 1000 ppm until the desired concentration is attained. To produce further test concentrations, the formulation is diluted with emulsifier-containing water. Pre-swollen wheat grains (Triticum aestivum) are incubated in a multiwell plate filled with agar and a little water for one day (5 seed grains per cavity). The germinated wheat grains are sprayed with an active compound formulation of the desired concentration. Subsequently, each cavity is infected with 10-20 beetle larvae of Diabrotica balteata. After 7 days, the efficacy in % is determined. 100% means that all wheat plants have grown as in the untreated, uninfected control; 0% means that no wheat plant has grown.

A further test deals with Nezara viridula. In words: Nezara viridula spray test. Particulars: Nezara viridula, 96 h, application rate 500 g/ha, after 4 days. How it is done: [table] To produce a suitable active compound formulation, 1 part by weight of active compound is dissolved using the stated parts by weight of solvent and made up with water containing an emulsifier concentration of 1000 ppm until the desired concentration is attained. To produce further test concentrations, the formulation is diluted with emulsifier-containing water. Barley plants (Hordeum vulgare) are sprayed with an active compound formulation of the desired concentration and are infected with larvae of the Southern green shield bug (Nezara viridula). After 4 days, the efficacy in % is determined. 100% means that all of the shield bugs have been killed; 0% means that none of the shield bugs have been killed.

On to `CCc1nc(C(F)(F)F)cc2nc(-c3nc(-n4ncn(-c5ccc(O)cc5)c4=O)ccc3S(=O)(=O)CC)n(C)c12` [I-016 Known from WO2018/141954, reference compound], for which the Emax at 0.8 ppm came out at 10% in the test with Heliothis armigera, 70% in the test with Plutella xylostella and 65% with Spodoptera frugiperda [1]. Besides, the Emax at 4 ppm with Heliothis armigera stood at 55%.
The compound `CCS(=O)(=O)c1ccc(-n2ncn(C3CC3)c2=O)nc1-c1nc2cc(S(=O)(=O)C(F)(F)F)ccc2o1` [Example I-03] gave a pest or weed control at 100 g/ha in the test with Spodoptera frugiperda [2] of 100%. In addition, the activity with Myzus persicae [3] and in the test on Phaedon cochleariae was 100% in each case. In the test on Myzus persicae [4], the pest or weed control at 4 ppm was 100%.
For `CCS(=O)(=O)c1ccc(-n2ncn(-c3ccc(C4(C#N)CC4)cc3)c2=O)nc1-c1nc2cc(S(=O)(=O)C(F)(F)Cl)ccc2o1` [Example I-18], in the test with Meloidogyne incognita, the “nematicidal efficacy (formation of galls)” value came out at 100%. The pest or weed control at 100 g/ha in the test on Diabrotica balteata is 100%.
In the case of `CCS(=O)(=O)c1ccc(-n2ncn(-c3ccc(Cl)cc3)c2=O)nc1-c1nc2cc(S(=O)(=O)C(F)(F)F)ccc2o1` [Example I-02], the pest or weed control at 100 g/ha in the test on Spodoptera frugiperda [2] stood at 100%. The same compound showed an activity with Phaedon cochleariae of 100%. Moreover, the Emax at 0.8 ppm in the test with Heliothis armigera, in the test on Plutella xylostella and with Spodoptera frugiperda [1] was 100% in each case. In addition, the Emax at 4 ppm in the test with Heliothis armigera came to 100%. In addition, in the test on Myzus persicae [4], the pest or weed control at 4 ppm was determined as 90%.
Regarding `CCS(=O)(=O)c1ccc(-n2cnn(-c3ccccc3F)c2=O)nc1-c1nc2cc(C(F)(F)F)ccc2n1C` [I-34 Known from WO2017/055185, reference compound], the Emax at 4 ppm with Heliothis armigera and with Plutella xylostella was 0% throughout. The Emax at 0.8 ppm in the test on Spodoptera frugiperda [1] came out at 0%.
As for `CCS(=O)(=O)c1ccc(-n2ncn(-c3ccc(OC)nc3)c2=O)nc1-c1nc2cc(S(=O)(=O)C(F)(F)F)ccc2o1` [Example I-43], in the test with Meloidogyne incognita, the “nematicidal efficacy (formation of galls)” value was found to be 90%. The pest or weed control at 100 g/ha in the test with Spodoptera frugiperda [2] was found to be 83%; with Diabrotica balteata, 80%. This compound returned a pest or weed control at 500 g/ha in the test with Nezara viridula of 90%.
As to `CCS(=O)(=O)c1ccc(-n2ncn(-c3ccc(F)cc3)c2=O)nc1-c1nc2cc(S(=O)(=O)C(F)(F)F)ccc2o1` [Example I-04], the pest or weed control at 100 g/ha in the test with Spodoptera frugiperda [2] is 100%. In the test on Phaedon cochleariae, the activity came to 100%. The Emax at 4 ppm in the test on Heliothis armigera and with Plutella xylostella was 100% each time. For the same compound, the pest or weed control at 4 ppm in the test on Myzus persicae [4] came to 100%. The Emax at 0.8 ppm with Spodoptera frugiperda [1] is 100%.
